Measured values from publication PMC11091828 (Journal of medicinal chemistry, 2023).

Legend:
hMOR = hMOR (Homo sapiens, UniProt P35372); test: hMOR radioligand binding, competition with [3H]-DAMGO, HEK293 membranes; details: for improved MOR affinity with respect to 2-THP unsubstituted analog: 122 vs 115, 121 vs 112
mMOR [1] = molecular target: T1, mMOR (Mus musculus, UniProt P42866); test: BRET Nb33 recruitment at MOR, HEK 293T cells; assay type: cell-based; details: read-out: MOR Nb33 recruitment Emax ± SEM
hD3R [2] = molecular target: T2, hD3R (Homo sapiens, UniProt P35462); assay type: binding; details: from Ki values
mMOR [3] = molecular target: T1, mMOR; test: BRET arrestin-3 recruitment at MOR with overexpressed GRK2, HEK 293T cells; assay type: cell-based; details: NA = No Activity at the highest tested concentration
hD3R [4] = molecular target: T2, hD3R; test: BRET D3R-mediated GαoA G protein activation; assay type: cell-based; details: agonist mode; NA = No Activity at the highest tested concentration
mMOR [5] = molecular target: T1, mMOR; test: BRET MOR-mediated Gαi2 G protein activation; assay type: cell-based; details: NA = No Activity at the highest tested concentration

Chain of hMOR (P35372 whole entry): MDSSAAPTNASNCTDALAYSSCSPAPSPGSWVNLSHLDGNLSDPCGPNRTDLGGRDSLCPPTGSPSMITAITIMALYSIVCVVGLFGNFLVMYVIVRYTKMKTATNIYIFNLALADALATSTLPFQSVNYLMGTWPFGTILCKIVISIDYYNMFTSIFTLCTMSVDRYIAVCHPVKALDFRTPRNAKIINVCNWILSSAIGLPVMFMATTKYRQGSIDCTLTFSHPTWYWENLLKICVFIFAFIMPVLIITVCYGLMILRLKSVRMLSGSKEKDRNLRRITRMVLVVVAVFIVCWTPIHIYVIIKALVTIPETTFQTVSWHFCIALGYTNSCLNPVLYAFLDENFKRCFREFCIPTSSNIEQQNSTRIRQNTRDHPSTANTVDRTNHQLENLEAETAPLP
T1 sequence (P42866 whole entry): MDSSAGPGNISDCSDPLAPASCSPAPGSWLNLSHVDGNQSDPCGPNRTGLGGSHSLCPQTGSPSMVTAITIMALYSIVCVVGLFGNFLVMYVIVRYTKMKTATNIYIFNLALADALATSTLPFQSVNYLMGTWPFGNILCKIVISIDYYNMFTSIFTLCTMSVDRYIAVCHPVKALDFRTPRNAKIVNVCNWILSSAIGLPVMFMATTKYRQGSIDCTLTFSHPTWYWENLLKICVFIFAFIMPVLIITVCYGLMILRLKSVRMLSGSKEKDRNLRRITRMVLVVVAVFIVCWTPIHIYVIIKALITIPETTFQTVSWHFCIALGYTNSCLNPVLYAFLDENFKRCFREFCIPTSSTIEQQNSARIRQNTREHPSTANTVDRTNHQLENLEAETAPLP
T2 sequence (P35462 whole entry): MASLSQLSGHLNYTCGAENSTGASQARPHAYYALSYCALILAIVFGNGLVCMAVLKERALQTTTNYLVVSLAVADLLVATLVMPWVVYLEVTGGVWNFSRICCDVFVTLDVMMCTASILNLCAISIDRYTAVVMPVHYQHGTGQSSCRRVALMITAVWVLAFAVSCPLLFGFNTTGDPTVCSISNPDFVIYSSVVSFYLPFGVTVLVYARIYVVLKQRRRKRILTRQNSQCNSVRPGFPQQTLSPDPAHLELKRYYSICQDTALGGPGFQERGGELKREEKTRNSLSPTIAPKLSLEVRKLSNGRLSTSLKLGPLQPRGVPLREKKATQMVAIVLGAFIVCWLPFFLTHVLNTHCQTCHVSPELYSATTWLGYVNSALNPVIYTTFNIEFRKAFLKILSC

CN(C)C(=O)C(CCN1C[C@H](O)CC1=CN1CCN(c2cccc(Cl)c2Cl)CC1)(c1ccccc1)c1ccccc1 (mixture of isomers) [compound 26, (R)-4-(2-((4-(2,3-Dichlorophenyl)piperazin-1-yl)methylene)-4-hydroxypyrrolidin-1-yl)-N,N-dimethyl-2,2-diphenylbutanamide]
Ki (hMOR): 23.8 nM

CCCN(CCC(C(=O)N(C)C)(c1ccccc1)c1ccccc1)[C@@H]1C[C@H]1c1ccc(Cl)cc1 (relative stereo) [compound 80, rel-trans-4-((2-(4-Chlorophenyl)cyclopropyl)(propyl)amino)-N,N-dimethyl-2,2-diphenylbutanamide]
Emax (mMOR [1]): 27.7 ± 4.9%

COc1ccccc1[C@@H]1C[C@H]1NCCC(C(=O)N(C)C)(c1ccccc1)c1ccccc1 (relative stereo) [compound 84, rel-trans-4-((2-(2-Methoxyphenyl)cyclopropyl)amino)-N,N-dimethyl-2,2-diphenylbutanamide]
Emax (mMOR [1]): 31 ± 2.3%

Clc1ccc([C@@H]2C[C@H]2NCCC2(c3ccccn3)CCOC3(CCCC3)C2)cc1 (relative stereo) [compound 121, rel-trans-2-(4-Chlorophenyl)-N-(2-(9-(pyridin-2-yl)-6-oxaspiro[4.5]decan-9-yl)ethyl)cyclopropan-1-amine]
D3R selectivity over D2R (hD3R [2]): 15 fold | MOR arr3 recruitment (+ GRK2) pEC50 ± SEM (mMOR [3]): 6.58 ± 0.08 | improved MOR affinity with respect to 2-THP unsubstituted analog (hMOR): > 10 fold

CCc1cc(Cl)c(OC)c(N2CCN(C[C@@H]3C[C@@H](O)CN3CCC(C(=O)N(C)C)(c3ccccc3)c3ccccc3)CC2)c1 [compound 34, 4-((2S,4R)-2-((4-(3-Chloro-5-ethyl-2-methoxyphenyl)piperazin-1-yl)methyl)-4-hydroxypyrrolidin-1-yl)-N,N-dimethyl-2,2-diphenylbutanamide]
D3R GoA activation pEC50 ± SEM (hD3R [4]): 7.60 ± 0.99

CN(C)C(=O)C(CCN1C[C@H](F)C[C@H]1C(=O)NCCCCN1CCN(c2cccc(C(F)(F)F)n2)CC1)(c1ccccc1)c1ccccc1 [compound 56, (2S,4R)-1-(4-(Dimethylamino)-4-oxo-3,3-diphenylbutyl)-4-fluoro-N-(4-(4-(6-(trifluoromethyl)pyridin-2-yl)piperazin-1-yl)butyl)pyrrolidine-2-carboxamide]
MOR Gi2 activation pEC50 ± SEM (mMOR [5]): 5.94 ± 0.08

FC(F)(F)c1cccc(N2CCN(CCC3(c4ccccn4)CCOC4(CCCC4)C3)CC2)n1 (stereo not drawn) [compound 122, 1-(2-(9-(Pyridin-2-yl)-6-oxaspiro[4.5]decan-9-yl)ethyl)-4-(6-(trifluoromethyl)pyridin-2-yl)piperazine]
improved MOR affinity with respect to 2-THP unsubstituted analog (hMOR): > 10 fold
